PubChem BioAssay (NCI)
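1) Cells in 96-well plates. 2) Compound, 48 h, 5 concentrations. 3) Linear interpolation between surrounding doses. 4) Unreached endpoint = highest concentration. The concentration for full growth arrest is given as TGI.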

Experiments:
Experiment in all cases: NCI anticancer screen, dose series, 48 h
[1] = test system: LXFL 529 NSCLC
[2] = test system: SF-268 CNS
[3] = test system: NCI-H460 lung
[4] = test system: EKVX NSCLC
[5] = test system: TK-10 renal
[6] = test system: HOP-92 NSCLC
[7] = test system: UO-31 renal
[8] = test system: HCT-15 colon
[9] = test system: CCRF-CEM leukemia
[10] = test system: SK-MEL-2 melanoma
[11] = test system: SW-620 colon
[12] = test system: SNB-78 CNS
[13] = test system: COLO 205 colon
[14] = test system: KM20L2 colon
[15] = test system: DMS 114 small cell lung
[16] = test system: SF-539 CNS
[17] = test system: 786-0 renal
[18] = test system: NCI-H23 lung
[19] = test system: UACC-257 melanoma
[20] = test system: HCT-116 colon
[21] = test system: HCC-2998 colon
[22] = test system: KM12 colon
[23] = test system: HL-60(TB) leukemia
[24] = test system: SNB-19 CNS
[25] = test system: NCI-H226 lung
[26] = test system: MOLT-4 leukemia
[27] = test system: RXF 393 renal
[28] = test system: SF-295 CNS
[29] = test system: HT29 colon
[30] = test system: OVCAR-5 ovarian
[31] = test system: NCI-H522 lung
[32] = test system: CAKI-1 renal
[33] = test system: SK-MEL-28 melanoma
[34] = test system: RPMI-8226 leukemia
[35] = test system: A549 NSCLC
[36] = test system: LOX IMVI melanoma
[37] = test system: OVCAR-3 ovarian
[38] = test system: SR leukemia
[39] = test system: OVCAR-4 ovarian
[40] = test system: DMS 273 small cell lung
[41] = test system: SN12C renal
[42] = test system: M14 melanoma
[43] = test system: A498 renal
[44] = test system: OVCAR-8 ovarian
[45] = test system: ACHN renal
[46] = test system: K-562 leukemia
[47] = test system: IGROV1 ovarian
[48] = test system: SNB-75 CNS
[49] = test system: M19-MEL melanoma
[50] = test system: XF 498 CNS
[51] = test system: U251 CNS
[52] = test system: DLD-1 colon
[53] = test system: HOP-62 NSCLC
[54] = test system: UACC-62 melanoma
[55] = test system: SK-OV-3 ovarian
[56] = test system: MALME-3M melanoma
[57] = test system: SK-MEL-5 melanoma

SMILES: Nc1nnc2c(-c3ccccc3)[nH]nc2n1
- TGI [1]: > 100 µM
- TGI [2]: 58.7 µM
- TGI [3]: > 100 µM
- TGI [4]: > 100 µM
- TGI [5]: > 100 µM
- TGI [6]: 63.6 µM
- TGI [7]: > 100 µM
- TGI [8]: > 100 µM
- TGI [9]: > 100 µM
- TGI [10]: > 100 µM
- TGI [11]: > 100 µM
- TGI [12]: > 100 µM
- TGI [13]: > 100 µM
- TGI [14]: > 100 µM
- TGI [15]: > 100 µM
- TGI [16]: > 100 µM
- TGI [17]: > 100 µM
- TGI [18]: > 100 µM
- TGI [19]: > 100 µM
- TGI [20]: > 100 µM
- TGI [21]: > 100 µM
- TGI [22]: > 100 µM
- TGI [23]: > 100 µM
- TGI [24]: > 100 µM
- TGI [25]: > 100 µM
- TGI [26]: > 100 µM
- TGI [27]: > 100 µM
- TGI [28]: > 100 µM
- TGI [29]: > 100 µM
- TGI [30]: > 100 µM
- TGI [31]: > 100 µM
- TGI [32]: > 100 µM
- TGI [33]: > 100 µM
- TGI [34]: > 100 µM
- TGI [35]: > 100 µM
- TGI [36]: > 100 µM
- TGI [37]: > 100 µM
- TGI [38]: > 100 µM
- TGI [39]: > 100 µM
- TGI [40]: > 100 µM
- TGI [41]: > 100 µM
- TGI [42]: > 100 µM
- TGI [43]: > 100 µM
- TGI [44]: > 100 µM
- TGI [45]: > 100 µM
- TGI [46]: > 100 µM

SMILES: Cc1cc2ncn(-c3nc4ccccc4nc3C(C#N)S(C)(=O)=O)c2cc1C (centres undefined)
- TGI [1]: > 100 µM
- TGI [2]: > 100 µM
- TGI [3]: > 100 µM
- TGI [4]: > 100 µM
- TGI [47]: > 100 µM
- TGI [5]: > 100 µM
- TGI [48]: > 100 µM
- TGI [7]: > 100 µM
- TGI [8]: > 100 µM
- TGI [49]: > 100 µM
- TGI [9]: > 100 µM
- TGI [10]: > 100 µM
- TGI [11]: > 100 µM
- TGI [50]: > 100 µM
- TGI [12]: > 100 µM
- TGI [13]: > 100 µM
- TGI [14]: > 100 µM
- TGI [15]: > 100 µM
- TGI [16]: > 100 µM
- TGI [17]: > 100 µM
- TGI [51]: > 100 µM
- TGI [18]: > 100 µM
- TGI [52]: > 100 µM
- TGI [19]: > 100 µM
- TGI [20]: > 100 µM
- TGI [21]: > 100 µM
- TGI [22]: > 100 µM
- TGI [23]: > 100 µM
- TGI [24]: > 100 µM
- TGI [25]: > 100 µM
- TGI [26]: > 100 µM
- TGI [30]: > 100 µM
- TGI [31]: > 100 µM
- TGI [53]: > 100 µM
- TGI [32]: > 100 µM
- TGI [33]: > 100 µM
- TGI [34]: > 100 µM
- TGI [35]: > 100 µM
- TGI [36]: > 100 µM
- TGI [37]: > 100 µM
- TGI [54]: > 100 µM
- TGI [38]: > 100 µM
- TGI [55]: > 100 µM
- TGI [39]: > 100 µM
- TGI [40]: > 100 µM
- TGI [41]: > 100 µM
- TGI [42]: > 100 µM
- TGI [56]: > 100 µM
- TGI [43]: > 100 µM
- TGI [44]: > 100 µM
- TGI [45]: > 100 µM
- TGI [46]: > 100 µM
- TGI [57]: > 100 µM
